Measured values: the supplement of paper PMC8671470

What was measured:
[1] = system: myeloid leukemia patient primary cells Pat.1; assay: cell viability (% survival relative to DMSO control); higher = less cytotoxic; conditions: 72 h
Method in brief: (§1)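 Where an area under the curve appears, it was computed with the drc and PharmacoGx R packages from log-logistic fits. Those fits used four parameters. The underlying viability data came from CellTiter-Glo after 72 h, normalised to DMSO and 10 μM proteasome-inhibitor wells, with thawed, Ficoll-purified AML or CML patient mononuclear cells at 10,000 cells/well in RPMI 1640 with 10% FBS on 384-well plates pre-printed with 70 compounds at five tenfold concentrations (1–10,000 nM) in duplicate.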

[2] = system: myeloid leukemia patient primary cells Pat.13; assay: as above; conditions: 72 h
Method in brief: as §1

For `Sc1ncnc2nc[nH]c12` [6-mercaptopurine], the cell viability ([1]; 1 nM) was > 100%, the cell viability ([1]; 10 nM) was 95.1% and the cell viability ([1]; 100 nM) was 92.6%. The cell viability ([1]; 1000 nM) was 84.3%, the cell viability ([1]; 10000 nM) was 93.1% and the cell viability ([2]; 1 nM) was 79.6%. The cell viability ([2]; 10 nM) was 88.3%, the cell viability ([2]; 100 nM) was 84.9% and the cell viability ([2]; 1000 nM) was 84.9%. It also gave a cell viability ([2]; 10000 nM) of 93.2%.
With `Cc1noc2c1-c1ccccc1C(c1ccc(Cl)cc1)=N[C@H]2CC(N)=O` [CPI-0610] the cell viability ([1]; 1 nM) was 90.3%, the cell viability ([1]; 10 nM) was 93.9% and the cell viability ([1]; 100 nM) was 84.9%. For the same compound, the cell viability ([1]; 1000 nM) was 39.1%, the cell viability ([1]; 10000 nM) was 21.7% and the cell viability ([2]; 1 nM) was 90.2%. The cell viability ([2]; 10 nM) was 95.2%, the cell viability ([2]; 100 nM) was 87.3% and the cell viability ([2]; 1000 nM) was 52.2%. The cell viability ([2]; 10000 nM) was 46.9%.
`Nc1ccn([C@@H]2O[C@H](CO)[C@@H](O)[C@@H]2O)c(=O)n1` [Cytarabine] gave a cell viability ([1]; 1 nM) of 99.3%, a cell viability ([1]; 10 nM) of 96.1% and a cell viability ([1]; 100 nM) of 76.9%. The cell viability ([1]; 1000 nM) was 84.9%, the cell viability ([1]; 10000 nM) was 60.7% and the cell viability ([2]; 1 nM) was 91.9%. The cell viability ([2]; 10 nM) was 68.8%, the cell viability ([2]; 100 nM) was 85.2% and the cell viability ([2]; 1000 nM) was 60.1%. The cell viability ([2]; 10000 nM) was 9.9%.
`CCN(CC)CCN(Cc1ccc(-c2ccc(C(F)(F)F)cc2)cc1)C(=O)Cn1c(SCc2ccc(F)cc2)nc(=O)c2c1CCC2` [Darapladib] showed a cell viability ([1]; 1 nM) of 79.5%, a cell viability ([1]; 10 nM) of 83% and a cell viability ([1]; 100 nM) of 61.6%. The cell viability ([1]; 1000 nM) was 95.4%, the cell viability ([1]; 10000 nM) was < 0% and the cell viability ([2]; 1 nM) was 74.1%. For the same compound, the cell viability ([2]; 10 nM) was 80.5%, the cell viability ([2]; 100 nM) was 74.2% and the cell viability ([2]; 1000 nM) was 71.2%. For the same compound, the cell viability ([2]; 10000 nM) was < 0%.
Compound `CC12CCC(O)CC1CCC1C2CCC2(C)C(C3=CC(=O)OC3)CCC12O` (stereo not given) [Digitoxigenin] has a cell viability ([1]; 1 nM) of 95.1%, a cell viability ([1]; 10 nM) of 74% and a cell viability ([1]; 100 nM) of 63.2%. The cell viability ([1]; 1000 nM) was 21.5%, the cell viability ([1]; 10000 nM) was 13% and the cell viability ([2]; 1 nM) was > 100%. The cell viability ([2]; 10 nM) was 64.8%, the cell viability ([2]; 100 nM) was 91.8% and the cell viability ([2]; 1000 nM) was 15%. The cell viability ([2]; 10000 nM) was 4.96%.
`C[C@H]1O[C@@H](O[C@H]2[C@@H](O)C[C@H](O[C@H]3[C@@H](O)C[C@H](O[C@H]4CC[C@@]5(C)[C@H](CC[C@@H]6[C@@H]5C[C@@H](O)[C@]5(C)[C@@H](C7=CC(=O)OC7)CC[C@]65O)C4)O[C@@H]3C)O[C@@H]2C)C[C@H](O)[C@@H]1O` [Digoxin] was tested, and the cell viability ([1]; 1 nM) was 96.2%, the cell viability ([1]; 10 nM) was 84.5% and the cell viability ([1]; 100 nM) was 85.3%. The cell viability ([1]; 1000 nM) was 13.2%, the cell viability ([1]; 10000 nM) was 8.18% and the cell viability ([2]; 1 nM) was 95.8%. For the same compound, the cell viability ([2]; 10 nM) was 99%, the cell viability ([2]; 100 nM) was 88.5% and the cell viability ([2]; 1000 nM) was 5.75%. For the same compound, the cell viability ([2]; 10000 nM) was 3.42%.
Work on `Clc1ccc(COC(Cn2ccnc2)c2ccc(Cl)cc2Cl)cc1` (stereo not given) [Econazole] yielded a cell viability ([1]; 1 nM) of 83.3%, a cell viability ([1]; 10 nM) of 77.2% and a cell viability ([1]; 100 nM) of 93.6%. The cell viability ([1]; 1000 nM) was > 100%, the cell viability ([1]; 10000 nM) was 52.8% and the cell viability ([2]; 1 nM) was 77.8%. It also gave a cell viability ([2]; 10 nM) of 95%, a cell viability ([2]; 100 nM) of 70.2% and a cell viability ([2]; 1000 nM) of 75%. The cell viability ([2]; 10000 nM) was 60.6%.
Work on `C[C@]12O[C@H](C[C@]1(O)CO)n1c3ccccc3c3c4c(c5c6ccccc6n2c5c31)CNC4=O` [Lestaurtinib] yielded a cell viability ([1]; 1 nM) of 93.5%, a cell viability ([1]; 10 nM) of 54.2% and a cell viability ([1]; 100 nM) of 22.3%. The cell viability ([1]; 1000 nM) was 22.1%, the cell viability ([1]; 10000 nM) was < 0% and the cell viability ([2]; 1 nM) was 89%. For the same compound, the cell viability ([2]; 10 nM) was 46.6%, the cell viability ([2]; 100 nM) was 48.2% and the cell viability ([2]; 1000 nM) was 57.7%. The cell viability ([2]; 10000 nM) was 1.29%.
`CC(Cc1ccc(O)c(O)c1)C(C)Cc1ccc(O)c(O)c1` (stereo not given) [Masoprocol] was tested, and the cell viability ([1]; 1 nM) was > 100%, the cell viability ([1]; 10 nM) was 92.3% and the cell viability ([1]; 100 nM) was 90.5%. For the same compound, the cell viability ([1]; 1000 nM) was 85.6%, the cell viability ([1]; 10000 nM) was 51.7% and the cell viability ([2]; 1 nM) was 93.2%. The cell viability ([2]; 10 nM) was 97.5%, the cell viability ([2]; 100 nM) was 98.5% and the cell viability ([2]; 1000 nM) was 70.5%. It also gave a cell viability ([2]; 10000 nM) of 56.2%.
With `COc1c(C)c2c(c(O)c1C/C=C(\C)CCC(=O)O)C(=O)OC2` [Mycophenolic acid] the cell viability ([1]; 1 nM) was 78.4%, the cell viability ([1]; 10 nM) was 96.8% and the cell viability ([1]; 100 nM) was 85%. For the same compound, the cell viability ([1]; 1000 nM) was 93.9%, the cell viability ([1]; 10000 nM) was 87.3% and the cell viability ([2]; 1 nM) was 61%. The cell viability ([2]; 10 nM) was 90.7%, the cell viability ([2]; 100 nM) was 73.5% and the cell viability ([2]; 1000 nM) was 68.1%. For the same compound, the cell viability ([2]; 10000 nM) was 63.1%.
For `CCOC(=O)N1c2ccc(C(F)(F)F)cc2[C@@H](N(Cc2cc(C(F)(F)F)cc(C(F)(F)F)c2)C(=O)OC)C[C@H]1CC` [Torcetrapib], the cell viability ([1]; 1 nM) was 93.1%, the cell viability ([1]; 10 nM) was 72.9% and the cell viability ([1]; 100 nM) was 92.6%. The cell viability ([1]; 1000 nM) was 95.4%, the cell viability ([1]; 10000 nM) was 65.3% and the cell viability ([2]; 1 nM) was > 100%. The cell viability ([2]; 10 nM) was 71.5%, the cell viability ([2]; 100 nM) was 92.1% and the cell viability ([2]; 1000 nM) was 81.1%. For the same compound, the cell viability ([2]; 10000 nM) was 48.2%.
